Assay results: article PMC5767004, “Inhibitors of the integrase–transportin-SR2 interaction block HIV nuclear import” (Retrovirology, 2018)
Entries after “also recorded” stand apart in the source; their conditions may differ.

Key:
HIV = conditions: cited from earlier work
[1] = tested on: HIV PIC nuclear import (IN-eGFP labeled virus); experiment: PIC nuclear import assay in HeLaP4 cells; format: cell-based, HIV-1; conditions: 100 µM hit compound, 5 h after infection, experiment compared to DMSO
[2] = biological target: T1, HIV-1 IN–TRN-SR2 interaction (UniProt P12497+Q9Y5L0); experiment: HIV-1 IN–TRN-SR2 AlphaScreen interaction assay; format: binding; conditions: evaluation as positive control, Fig. 2b
T1 construct: N-terminally His6-tagged and untagged IN; made in house; host or cells: E. coli BL21-CodonPlus2 (DE3)
T1 sequence (Q9Y5L0 whole entry, other chains not shown): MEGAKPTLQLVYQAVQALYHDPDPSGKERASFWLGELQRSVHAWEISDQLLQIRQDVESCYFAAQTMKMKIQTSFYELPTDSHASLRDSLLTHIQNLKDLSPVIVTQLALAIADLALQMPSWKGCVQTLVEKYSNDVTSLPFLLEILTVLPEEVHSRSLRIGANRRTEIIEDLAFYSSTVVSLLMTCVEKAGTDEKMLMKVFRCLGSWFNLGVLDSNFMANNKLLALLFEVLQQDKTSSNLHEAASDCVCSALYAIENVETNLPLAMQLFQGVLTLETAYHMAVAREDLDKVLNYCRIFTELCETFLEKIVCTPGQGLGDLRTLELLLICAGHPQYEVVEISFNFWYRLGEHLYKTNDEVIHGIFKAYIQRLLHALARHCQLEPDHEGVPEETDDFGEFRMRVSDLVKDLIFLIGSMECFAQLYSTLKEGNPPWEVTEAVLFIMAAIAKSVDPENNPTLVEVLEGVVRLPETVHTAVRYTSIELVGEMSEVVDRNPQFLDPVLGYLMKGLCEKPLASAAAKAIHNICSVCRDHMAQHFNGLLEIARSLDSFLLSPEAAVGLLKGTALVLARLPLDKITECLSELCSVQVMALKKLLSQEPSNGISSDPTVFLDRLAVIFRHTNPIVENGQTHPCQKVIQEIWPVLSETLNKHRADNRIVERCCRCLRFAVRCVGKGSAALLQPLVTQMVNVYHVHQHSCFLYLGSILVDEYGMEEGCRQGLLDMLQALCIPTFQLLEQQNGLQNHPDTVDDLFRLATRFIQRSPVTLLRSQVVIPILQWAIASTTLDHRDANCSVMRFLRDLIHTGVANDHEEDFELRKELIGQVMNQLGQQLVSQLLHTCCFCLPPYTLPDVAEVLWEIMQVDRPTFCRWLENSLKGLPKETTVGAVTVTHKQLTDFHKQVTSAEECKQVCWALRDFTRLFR
Method: Compound stocks were dissolved at approximately 5 mM in dimethylsulfoxide (DMSO) in 96-well plates. Stocks were first diluted to 125 µM in assay buffer (150 mM NaCl, 25 mM Tris–HCl pH 7.4, 1 mM MgCl2, 0.1% (v/v) Tween-20 and 0.1% (w/v) bovine serum albumin (BSA)) supplemented with 2.5% (v/v) DMSO before 10 µl was transferred to a dry 384-well PS 384-OptiPlate (Perkin Elmer) on a Freedom EVO200 liquid handling robot (Tecan). Untagged TRN-SR2 at 2.5 µM and assay buffer containing 5% DMSO were transferred from a separate 96-well plate to the assay plates and represented the positive and negative controls, respectively. Next, 5 µl each of 5× working dilutions of GST-TRN-SR2 and His6-IN were added using an XRD-384 automated reagent dispenser (FluidX). The plate was left to incubate for 1 h at 7 °C before 5 µl of a glutathione donor and Ni^2+-chelate acceptor AlphaScreen bead mixture (Perkin Elmer) was added. […]
Development of robust high-throughput assays requires optimal buffer conditions in which both proteins and the detection method are stable and reproducible. […] This experience allowed us to readily adapt an assay buffer to meet the requirements for a high-throughput screen (HTS) for inhibitors of the interaction. […]

Compound: Cc1[nH]c2ccccc2c1CC(=O)N[C@@H](Cc1ccccc1)C(=O)N(C)c1ccccc1 [PF74, PF-3450074]
- Inhibition of reverse transcription (in words) (HIV; higher concentrations (10 µM)): inhibits reverse transcription at higher concentrations
- Inhibition of HIV nuclear import (in words) (HIV; low concentrations (2 µM)): known to inhibit nuclear import at low concentrations

Compound: Cc1nnc(C(=O)NC(C)(C)c2nc(C(=O)NCc3ccc(F)cc3)c(O)c(=O)n2C)o1 [Ral, Raltegravir]
- % nuclear PICs (mean) [1]: 4.5%

Compound: Untagged TRN-SR2: untagged recombinant Transportin-SR2 protein, positive control of the AlphaScreen
- Inhibition of the IN–TRN-SR2 AlphaScreen signal by untagged protein (titration, in words) [2]: could block the interaction completely; also recorded: did inhibit the signal
